In article PMC8621334, “Ammonium Formate-Pd/C as a New Reducing System for 1,2,4-Oxadiazoles. Synthesis of Guanidine Derivatives and Reductive Rearrangement to Quinazolin-4-Ones with Potential Anti-Diabetic Activity” (International Journal of Molecular Sciences, 2021):

molecular target: T1, Dipeptidyl-Peptidase IV (DPPIV) (Homo sapiens, UniProt P27487); test: fluorometric DPPIV activity assay kit, % inhibition at […]; assay type: biochemical
T1 construct: gene DPP4
T1 sequence (P27487 whole entry): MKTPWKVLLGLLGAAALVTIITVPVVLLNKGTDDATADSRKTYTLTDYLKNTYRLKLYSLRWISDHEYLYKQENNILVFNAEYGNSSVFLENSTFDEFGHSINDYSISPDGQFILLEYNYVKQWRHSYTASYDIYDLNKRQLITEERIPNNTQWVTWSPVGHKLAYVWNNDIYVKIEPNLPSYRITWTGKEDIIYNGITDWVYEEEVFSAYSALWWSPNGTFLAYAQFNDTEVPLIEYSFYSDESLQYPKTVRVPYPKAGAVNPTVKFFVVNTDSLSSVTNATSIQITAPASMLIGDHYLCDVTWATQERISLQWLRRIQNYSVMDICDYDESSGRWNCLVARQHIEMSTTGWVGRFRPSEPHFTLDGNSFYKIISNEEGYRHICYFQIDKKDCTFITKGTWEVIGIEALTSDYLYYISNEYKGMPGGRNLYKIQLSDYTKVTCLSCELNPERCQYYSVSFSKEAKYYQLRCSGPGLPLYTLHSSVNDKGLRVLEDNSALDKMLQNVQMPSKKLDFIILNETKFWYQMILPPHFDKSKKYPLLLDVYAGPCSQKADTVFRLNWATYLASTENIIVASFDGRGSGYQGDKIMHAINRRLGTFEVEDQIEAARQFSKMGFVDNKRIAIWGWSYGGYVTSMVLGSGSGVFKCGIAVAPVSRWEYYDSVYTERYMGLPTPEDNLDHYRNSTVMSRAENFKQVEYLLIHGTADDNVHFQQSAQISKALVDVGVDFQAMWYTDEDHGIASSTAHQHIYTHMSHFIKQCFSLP

Structure (SMILES) | inhibition at 100 µM
CC(=O)NC(=N)NC(=O)c1ccccc1 [2k, N-(N-Acetylcarbamimidoyl)benzamide] | 79.3%
O=c1nc(-c2ccc(C(F)(F)F)cc2)[nH]c2ccccc12 [4i, 2-(4-(Trifluoromethyl)phenyl)quinazolin-4(1H)-one] | 72.5%
COc1ccc(-c2nc(=O)c3ccccc3n2C)cc1 [4f, 2-(4-Methoxyphenyl)-1-methylquinazolin-4(1H)-one] | 82.4%
COc1ccc(-c2nc(=O)c3ccccc3[nH]2)cc1 [4h, 2-(4-Methoxyphenyl) quinazolin-4(1H)-one] | 79.1%
N=C(NC(=O)c1ccccc1)NC(=O)c1ccccc1 [2n, N,N′-(Iminomethylene)dibenzamide] | 82.7%
